Measurements published in patent US10945992B1, “Dosage forms of rofecoxib and related methods” (Tremeau Pharmaceuticals, Inc., priority 2019, dated 2021).
Read-outs that look alike come from different tables or passages of the source.

Assay: TRM-201-PK-102 single-dose four-period crossover pharmacokinetic study, fasted healthy subjects
Format: in vivo, human
Settings: human, plasma, oral
Description: A Single-Dose, Open-Label, Phase 1, Four-Period Crossover Pharmacokinetic Study of TRM-201 (Rofecoxib) 12.5 mg, 17.5 mg, 20 mg and 25 mg Administered to Healthy Subjects in a Fasting State, with Comparison to Historical Pharmacokinetic Parameters of Previously Marketed Rofecoxib (“TRM-201-PK-102” or “102 PK Study”)
This was a single-center, open-label four-period crossover PK study of TRM-201. The study included 24 subjects who received TRM-201 as a single dose of 12.5 mg, 17.5 mg, 20 mg and 25 mg to assess the PK of TRM-201 in healthy volunteers under fasted conditions. Subjects were randomized to one of four treatment sequences. The PK data from the current study along with the data from the TRM-201-PK-101 study (Example 4) was used to compare to historical pharmacokinetic parameters of previously marketed rofecoxib, all in a fasted state.
In each of the four dosing periods, subjects fasted overnight for at least 10 hours before study drug dosing. While fasting, subjects had nothing to eat and only water to drink. Water was permitted as desired, except for the period between 1 hour before and 1 hour after study drug dosing (excepting as permitted for dosing). After the 2-hour PK blood sample, subjects were allowed one 250-mL cup of clear apple juice. After the 4-hour PK blood sample, subjects were served a light lunch. Following the light lunch, subjects received standardized meals according to the clinic's standard procedures that were scheduled at consistent times and at least 15 minutes before or 15 minutes after PK sampling time points. Blood was withdrawn for PK analysis at predefined time points. For each dosing period the last time point was 120 hours after dosing with study drug (Day 6). After the 120 hour PK sample, the EOP procedures was completed, subjects remained in-clinic for the in-between dose period day (Days 7, 14, and 21) and began the next dosing period starting with an overnight fast for at least 10 hours on Day −1 of the subsequent dosing period. Pharmacokinetic and safety endpoints were evaluated.
The study drug, TRM-201, was an immediate-release tablet that contained 12.5 mg rofecoxib, 17.5 mg rofecoxib, 20 mg rofecoxib or 25 mg rofecoxib. The 7.25-mm diameter tablets were off-white, round, and uncoated with no markings. TRM-201 tablets were for oral administration.
For each sample, approximately 3 mL of blood were drawn. The samples were obtained by a straight stick or via an in-dwelling intravenous (IV) catheter in a forearm vein. Additional details for the collection, processing, storage, and shipping of PK samples were provided in the study manual.
Pharmacokinetic samples will be analyzed using a validated assay for rofecoxib in human plasma. Assay results and validation details will be provided in a separate bioanalytical report. The following PK parameters for rofecoxib will be calculated as primary endpoints using standard noncompartmental methods: AUC0-∞ and Cmax. Secondary endpoints include Tmax, and t1/2. Additional PK parameters (e.g., CL/F, and Vd/F) will also be calculated using standard noncompartmental methods.
Individual plasma concentrations for rofecoxib and PK sampling time deviation data will be presented in a data listing. Plasma concentration data will be summarized by time point using the following descriptive statistics: number of subjects, arithmetic mean, SD, coefficient of variation (CV), geometric mean, natural-log-scale SD, geometric CV, median, minimum, and maximum. Individual plasma concentration versus actual time profiles were presented on both linear and semilogarithmic scales. Additionally, arithmetic mean concentration versus scheduled time profiles were presented on linear scales and geometric means on semilogarithmic scales.
The PK parameters of rofecoxib were analyzed based on the actual sampling times. […]

[1] = 12.5 mg, read-out: arithmetic mean plasma concentration
[2] = 12.5 mg, read-out: geometric mean plasma concentration
[3] = 17.5 mg, read-out: geometric mean plasma concentration

Work on `CS(=O)(=O)c1ccc(C2=C(c3ccccc3)C(=O)OC2)cc1` [TRM-201, 4-[4-(methylsulfonyl)phenyl]-3-phenyl-2(5H)-furanone] yielded a Cmax (12.5 mg, 102 study, body weight 77.1-90 kg, read-out: arithmetic mean Cmax) of 127 ng/mL, an AUC(0-inf) (12.5 mg, 102 study, body weight 77.1-90 kg, read-out: geometric mean AUC0-∞) of 1690 ng·h/mL and a Cmax (12.5 mg, 102 study, body weight 77.1-90 kg, read-out: geometric mean Cmax) of 125 ng/mL. It also gave an AUC(0-inf) (12.5 mg, 102 study, non-Hispanic or non-Latino subjects, read-out: arithmetic mean AUC0-∞) of 1820 ng·h/mL, a Cmax (12.5 mg, 102 study, non-Hispanic or non-Latino subjects, read-out: arithmetic mean Cmax) of 146 ng/mL and an AUC(0-inf) (12.5 mg, 102 study, non-Hispanic or non-Latino subjects, read-out: geometric mean AUC0-∞) of 1680 ng·h/mL. For the same compound, the Cmax (12.5 mg, 102 study, non-Hispanic or non-Latino subjects, read-out: geometric mean Cmax) was 141 ng/mL, the concentration at 15 minutes [1] was 1.03 ng/mL and the concentration at 15 minutes [2] was 0.529 ng/mL. It also gave a concentration at 45 minutes [1] of 56.8 ng/mL, a concentration at 45 minutes [2] of 33.9 ng/mL and an AUC(0-inf) (17.5 mg, 102 study only, read-out: arithmetic mean AUC0-∞) of 3290 ng·h/mL. It also gave a Cmax (17.5 mg, 102 study only, read-out: arithmetic mean Cmax) of 236 ng/mL, an AUC(0-inf) (17.5 mg, 102 study only, read-out: geometric mean AUC0-∞) of 3110 ng·h/mL and a Cmax (17.5 mg, 102 study only, read-out: geometric mean Cmax) of 224 ng/mL. For the same compound, the AUC(0-inf) (17.5 mg, 102 study, 18-40 years, read-out: arithmetic mean AUC0-∞) was 2820 ng·h/mL, the Cmax (17.5 mg, 102 study, 18-40 years, read-out: arithmetic mean Cmax) was 237 ng/mL and the AUC(0-inf) (17.5 mg, 102 study, 18-40 years, read-out: geometric mean AUC0-∞) was 2750 ng·h/mL. For the same compound, the Cmax (17.5 mg, 102 study, 18-40 years, read-out: geometric mean Cmax) was 229 ng/mL, the AUC(0-inf) (17.5 mg, 102 study, 41-52 years, read-out: arithmetic mean AUC0-∞) was 3520 ng·h/mL and the Cmax (17.5 mg, 102 study, 41-52 years, read-out: arithmetic mean Cmax) was 232 ng/mL. The AUC(0-inf) (17.5 mg, 102 study, 41-52 years, read-out: geometric mean AUC0-∞) was 3160 ng·h/mL, the Cmax (17.5 mg, 102 study, 41-52 years, read-out: geometric mean Cmax) was 213 ng/mL and the AUC(0-inf) (17.5 mg, 102 study, 53-60 years, read-out: arithmetic mean AUC0-∞) was 3510 ng·h/mL. For the same compound, the Cmax (17.5 mg, 102 study, 53-60 years, read-out: arithmetic mean Cmax) was 239 ng/mL, the AUC(0-inf) (17.5 mg, 102 study, 53-60 years, read-out: geometric mean AUC0-∞) was 3470 ng·h/mL and the Cmax (17.5 mg, 102 study, 53-60 years, read-out: geometric mean Cmax) was 230 ng/mL. It also gave an AUC(0-inf) (17.5 mg, 102 study, Black or African-American subjects, read-out: arithmetic mean AUC0-∞) of 2840 ng·h/mL, a Cmax (17.5 mg, 102 study, Black or African-American subjects, read-out: arithmetic mean Cmax) of 217 ng/mL and an AUC(0-inf) (17.5 mg, 102 study, Black or African-American subjects, read-out: geometric mean AUC0-∞) of 2800 ng·h/mL. The Cmax (17.5 mg, 102 study, Black or African-American subjects, read-out: geometric mean Cmax) was 211 ng/mL, the AUC(0-inf) (17.5 mg, 102 study, Hispanic or Latino subjects, read-out: arithmetic mean AUC0-∞) was 3520 ng·h/mL and the Cmax (17.5 mg, 102 study, Hispanic or Latino subjects, read-out: arithmetic mean Cmax) was 258 ng/mL. The AUC(0-inf) (17.5 mg, 102 study, Hispanic or Latino subjects, read-out: geometric mean AUC0-∞) was 3330 ng·h/mL, the Cmax (17.5 mg, 102 study, Hispanic or Latino subjects, read-out: geometric mean Cmax) was 243 ng/mL and the AUC(0-inf) (17.5 mg, 102 study, White subjects, read-out: arithmetic mean AUC0-∞) was 3400 ng·h/mL. The Cmax (17.5 mg, 102 study, White subjects, read-out: arithmetic mean Cmax) was 241 ng/mL, the AUC(0-inf) (17.5 mg, 102 study, White subjects, read-out: geometric mean AUC0-∞) was 3200 ng·h/mL and the Cmax (17.5 mg, 102 study, White subjects, read-out: geometric mean Cmax) was 228 ng/mL. For the same compound, the AUC(0-inf) (17.5 mg, 102 study, body weight 47-70 kg, read-out: arithmetic mean AUC0-∞) was 3180 ng·h/mL, the Cmax (17.5 mg, 102 study, body weight 47-70 kg, read-out: arithmetic mean Cmax) was 261 ng/mL and the AUC(0-inf) (17.5 mg, 102 study, body weight 47-70 kg, read-out: geometric mean AUC0-∞) was 2930 ng·h/mL. It also gave a Cmax (17.5 mg, 102 study, body weight 47-70 kg, read-out: geometric mean Cmax) of 242 ng/mL, an AUC(0-inf) (17.5 mg, 102 study, body weight 70.1-77 kg, read-out: arithmetic mean AUC0-∞) of 3890 ng·h/mL and a Cmax (17.5 mg, 102 study, body weight 70.1-77 kg, read-out: arithmetic mean Cmax) of 254 ng/mL. The AUC(0-inf) (17.5 mg, 102 study, body weight 70.1-77 kg, read-out: geometric mean AUC0-∞) was 3730 ng·h/mL, the Cmax (17.5 mg, 102 study, body weight 70.1-77 kg, read-out: geometric mean Cmax) was 246 ng/mL and the AUC(0-inf) (17.5 mg, 102 study, body weight 77.1-90 kg, read-out: arithmetic mean AUC0-∞) was 2910 ng·h/mL. For the same compound, the Cmax (17.5 mg, 102 study, body weight 77.1-90 kg, read-out: arithmetic mean Cmax) was 200 ng/mL, the AUC(0-inf) (17.5 mg, 102 study, body weight 77.1-90 kg, read-out: geometric mean AUC0-∞) was 2850 ng·h/mL and the Cmax (17.5 mg, 102 study, body weight 77.1-90 kg, read-out: geometric mean Cmax) was 194 ng/mL. It also gave an AUC(0-inf) (17.5 mg, 102 study, non-Hispanic or non-Latino subjects, read-out: arithmetic mean AUC0-∞) of 3050 ng·h/mL, a Cmax (17.5 mg, 102 study, non-Hispanic or non-Latino subjects, read-out: arithmetic mean Cmax) of 214 ng/mL and an AUC(0-inf) (17.5 mg, 102 study, non-Hispanic or non-Latino subjects, read-out: geometric mean AUC0-∞) of 2910 ng·h/mL. The Cmax (17.5 mg, 102 study, non-Hispanic or non-Latino subjects, read-out: geometric mean Cmax) was 207 ng/mL, the concentration at 15 minutes [3] was 0.669 ng/mL and the concentration at 45 minutes [3] was 51.6 ng/mL.
